According to US20260248157A1, “COMPOSITIONS FOR REDUCING METHANE EMISSION” (MOOTRAL INNOVATIONS LIMITED, priority 2022, published 2026):
Like-named read-outs stand apart in the source and are kept apart here.

Experiments:
[1] = test system: rumen fluid; test: In vitro rumen fluid fermentation assay (Gas Test), methane by gas chromatography; assay type: cell-based, cows; details: for Synergistic effect in methane inhibition: combined with iodoform
Method: Various samples of single species, extracts, two-species combinations, and three-species combinations were assessed for their potential to inhibit methane production. This evaluation was carried out using in vitro fermentation assays known as Gas Tests. In each Gas Test, 250 mg of total meal ration (TMR) comprising 30% grass, 30% corn, and 40% complete feed was introduced into 100 ml serum vials as the substrate for the fermentation process. Rumen fluid, obtained from fistulated cows at the University of Reading, was mixed with degassed reaction buffer (1.6 L) and supplemented with Na2S (82 ml). Subsequently, 30 ml of the rumen fluid/buffer mixture was added to each serum vial.
The test substances were dissolved in 100% ethanol, and 100 μl of each test substance was added to the serum vials containing the rumen fluid/buffer mixture. All test substances and controls were examined in triplicate for each experiment. Once the test substances and controls were added, the vials were sealed with butyl rubber stoppers and aluminium crimps, then incubated at 39° C. for 24 hours. Following incubation, gas samples were collected from both the control and test vials, and methane levels were determined using gas chromatography.
For each test compound, the “percentage inhibition of methane produced” was calculated using the following formula: […]
The test substances underwent evaluation in three independent Gas Tests, and an average percentage inhibition was calculated for each substance.
Synergy between substances was determined using the Bliss Independence Model using the following equation: […]
Where IAB is the predicted percentage methane inhibition of both substances together and IA and IB are the observed percentage methane inhibitions of the individual substances. The predicted percentage methane inhibition of both substances (IAB) and the observed percent methane inhibition of both substances (Iob) are used to calculate the Combination index (Ci) as follows:
If the Ci<1 then the two substances are synergistic.
Synergy between substances was determined using the following calculation:
Where IABC is the predicted percentage methane inhibition of the three substances together and IA, IB and IC are the observed percentage methane inhibitions of the individual substances.
The predicted percentage methane inhibition of the three substances (IABC) and the observed percent methane inhibition of the combination of the three substances (Iob) are used to calculate the Combination index (Ci) as follows: […]

[2] = test system: Methanococcus maripaludis; test: Inhibition of methane production by Methanococcus maripaludis culture (pressure drop after 24 h); assay type: cell-based; details: for Inhibition of methane production by bromoform on its own: bromoform alone at 0.12 μM (very low concentration); for Fold increase of Compound X combined with bromoform as compared to Compound X alone: bromoform 0.12 μM
Method: For this experiment, bromoform was prepped at 100 mM by adding 8.75 μl bromoform to 991 μl DMSO. This was diluted 10× to generate a 10 mM solution and further diluted to generate 0.12 mM stock solutions. Compound X stock solutions were prepared in DMSO (except for tannic acid, which was diluted in deionized water), to achieve the desired stock solutions required for testing. The experiment was set up by adding 5 ml of M141 medium (https://www.dsmz.de/microorganisms/medium/pdf/DSMZ_Medium141.pdf) to a screw cap Hungate tube followed by the addition of 5 μl Compound X and/or 5 μl bromoform or 5/10 μl DMSO as follows: • Tube 1: DMSO (10 μl) • Tube 2: Bromoform (5 μl, 0.120 mM) (120 nM final)+5 μl DMSO • Tube 3: Compound X (5 μl stock solution)+5 μl DMSO • Tube 4: Bromoform (5 μl 0.120 mM) (120 nM final)+Compound X (5 μl stock solution)
The concentration of Bromoform was fixed at 0.12 μM.
After the addition of the test substances, 500 μl of an overnight M. maripaludis culture was added to each reaction tube. Each tube was gassed with 80% H2/20% CO2 to 240 kPa and incubated at 37° C. for 24 h.
After the 24 h incubation the pressure inside the tube was measured using a manometer. Given that 5 moles of H2/CO2 are consumed to generate 1 mole of CH4 the drop in pressure observed was used to calculate the amount of methane by the control and test reactions from which a percent inhibition was calculated.
Table 1 below summarises the range of concentrations and the fold increase in inhibition of Compound X when tested with bromoform relative to the level of inhibition for Compound X when tested alone.

[3] = Bos taurus, 24 h, read-out: Average of observed methane inhibition (%)
[4] = Bos taurus, sole compound, 25 μM, 24 h, three Gas Tests, read-out: Average of observed methane inhibition (%)

Which inhibition at 0.1 µM [1, 3] does the source give for `BrC(Br)Br` [Bromoform, bromoform] here?
The inhibition at 0.1 µM was 1.3%.

And the inhibition at 1 µM [1, 3]?
The inhibition at 1 µM was 92.4%.

What about the “Inhibition of methane production by bromoform on its own” value [2] of the same compound?
Its value is “too low to inhibit methanogen on its own”.

What about the “Inhibition of methane production by bromoform on its own” value ([2]; listed as bromoform) of the same compound?
The value was “does not reduce or inhibit methane production”.

How did the inhibition at 25 µM [1, 3] turn out when `C=CCSSCC=C` [Diallyl disulfide, diallyl disulfide] was run?
Its inhibition at 25 µM is 5%.

And the “Methane inhibition in combination with Bromoform (%)” value (“Methane inhibition … (%)” below) ([2]; Compound X 15.6 μM-250 μM (range tested) + bromoform 0.12 μM, 24 h)?
The value was 88.8%.

What about the “Fold increase of Compound X combined with bromoform as compared to Compound X alone” value (“Fold increase of Compound X combined” below) ([2]; Compound X 15.6 μM-250 μM (range tested)) of the same compound?
Its value is 88.8 fold.

And the inhibition at 15.6 µM ([2]; Methanococcus maripaludis, 24 h, read-out: Methane inhibition of Compound X as a sole compound (%))?
The inhibition at 15.6 µM was 1%.

What does the source list for `C=CCSSSCC=C` [Diallyl trisulfide, diallyl trisulfide]?
inhibition at 25 µM [1, 4]: 11%; Synergistic effect in methane inhibition [1]: synergistic effects were observed; Methane inhibition in combination with Bromoform (%) ([2]; Compound X 125 μM + bromoform 0.12 μM, 24 h): 27.1%; Fold increase of Compound X combined with bromoform as compared to Compound X alone ([2]; Compound X 125 μM): 27.1 fold; inhibition at 125 µM ([2]; Methanococcus maripaludis, Compound X 125 μM alone, 24 h, read-out: Methane inhibition of Compound X as a sole compound (%)): 1%

With `BrCBr` [Dibromomethane, dibromomethane] as the compound, how does the inhibition at 0.5 µM [1, 3] read?
The inhibition at 0.5 µM was 14.5%.

What about the inhibition at 10 µM [1, 3] of the same compound?
Its inhibition at 10 µM is 99%.

And the “Synergistic effect in methane inhibition” value [1]?
Its value is “synergistic effects were observed”.

Which results are given for `CCCSSCCC` [Dipropyl disulfide, dipropyl disulfide]?
inhibition at 30 µM ([1]; Bos taurus, sole compound, 30 μM, 24 h, three Gas Tests, read-out: Average of observed methane inhibition (%)): 3%; Synergistic effect in methane inhibition [1]: synergistic effects were observed; Methane inhibition in combination with Bromoform (%) ([2]; Compound X 1 mM + bromoform 0.12 μM, 24 h): 43.5%; Fold increase of Compound X combined with bromoform as compared to Compound X alone ([2]; Compound X 1 mM): 1.57 fold; inhibition at 1000 µM ([2]; Methanococcus maripaludis, Compound X 1 mM alone, 24 h, read-out: Methane inhibition of Compound X as a sole compound (%)): 27.7%

With `IC(I)I` [Iodoform, iodoform] as the compound, how does the inhibition at 2 µM ([1]; Bos taurus, sole compound, 2 μM, 24 h, three Gas Tests, read-out: Average of observed methane inhibition (%)) read?
The inhibition at 2 µM was 40.8%.

What about the inhibition at 10 µM ([1]; Bos taurus, sole compound, 10 μM, 24 h, three Gas Tests, read-out: Average of observed methane inhibition (%)) of the same compound?
Its inhibition at 10 µM is 98.3%.

For `O=C1C[C@@H](c2ccc(O)cc2)Oc2cc(O)cc(O)c21` [Naringenin], which inhibition at 100 µM ([1]; Bos taurus, sole compound, 100 μM, 24 h, three Gas Tests, read-out: Average of observed methane inhibition (%)) is on record?
The inhibition at 100 µM was 10%.

And the “Synergistic effect in methane inhibition” value [1]?
The value was “synergistic effects were observed”.

And the “Methane inhibition … (%)” value ([2]; Compound X 100 μM + bromoform 0.12 μM, 24 h)?
Its value is 90.3%.

And the “Fold increase of Compound X combined” value ([2]; Compound X 100 μM)?
Its value is 90.3 fold.

And the inhibition at 100 µM ([2]; Methanococcus maripaludis, Compound X 100 μM alone, 24 h, read-out: Methane inhibition of Compound X as a sole compound (%))?
The inhibition at 100 µM was 1%.

How did the inhibition at 25 µM [1, 4] turn out when `CCCCCCC(C=O)=Cc1ccccc1` [α-Hexylcinnamaldehyde] was run?
Its inhibition at 25 µM is 8%.

And the “Synergistic effect in methane inhibition” value [1]?
The value was “synergistic effects were observed”.

What about the “Methane inhibition … (%)” value ([2]; Compound X 31.25 μM + bromoform 0.12 μM, 24 h) of the same compound?
The value was 97.2%.

What about the “Fold increase of Compound X combined” value ([2]; Compound X 31.25 μM) of the same compound?
Its value is 97.2 fold.

What about the inhibition at 31.25 µM ([2]; Methanococcus maripaludis, Compound X 31.25 μM alone, 24 h, read-out: Methane inhibition of Compound X as a sole compound (%)) of the same compound?
Its inhibition at 31.25 µM is 1%.
